# Data reported in patent US6432953B1, “Polymorphic form of a tachykinin receptor antagonist” (Merck & Co., Inc., priority 1997, dated 2002).
# Key:
# [1] = Solubility in methanol/water; format: physicochemical; conditions: for solubility: 2/1 (v/v) methanol/water, 0 °C, organic solvent or mixture, thermodynamic from solid
# Method: The solubility of Form I in 2/1 (v/v) methanol/water at 0° C. was determined to be 0.9±0.1 mg/ml. The solubility of Form II in 2/1 (v/v) methanol/water at 0C was determined to be 1.3±0.2 mg/ml.
# cisplatin-induced emesis = experiment: Ferret model of cisplatin-induced emesis; format: in vivo; conditions: model of Tattersall et al.
# Thermal stability = format: physicochemical
# [2] = Vapor pressure by Knudsen effusion techniques; format: physicochemical; conditions: at elevated temperatures, Form I compared with Form II
# From the text: The vapor pressures of Form I and Form II at elevated temperatures were similar when examined with Knudsen effusion techniques.
# Hygroscopicity = format: physicochemical
ratio of the solubilities [1],solubility ([1]; 2/1 (v/v) methanol/water at 0° C.),"more stable than Form II by ([1]; thermodynamic stability difference between polymorphs, from solubility ratio)",thermal stability (Thermal stability; as a neat solid),thermal stability (Thermal stability; in hydroalcoholic solution),vapor pressures [2],hygroscopicity (Hygroscopicity),solubility ([1]; 2/1 (v/v) methanol/water at 0C),Structure (SMILES),retching and vomiting induced by cisplatin (cisplatin-induced emesis)
1.4,900 ± 100 µg/mL,0.2 kcal/mol,high degree of thermal stability,high degree of thermal stability,similar,non-hygroscopic,–,CC(OC1OCCN(Cc2n[nH]c(=O)[nH]2)[C@H]1c1ccc(F)cc1)c1cc(C(F)(F)F)cc(C(F)(F)F)c1 (stereo partly drawn) [Form I],attenuate the retching and vomiting induced by cisplatin
–,–,–,–,–,–,–,1300 ± 200 µg/mL,CC(OC1OCCN(Cc2n[nH]c(=O)[nH]2)[C@H]1c1ccc(F)cc1)c1cc(C(F)(F)F)cc(C(F)(F)F)c1 (stereo partly drawn) [Form II],–
